The conditions of assay [1]: clinical trial of MS; cited from earlier work.
On the set-up of assay [2]: method as in Trial NCT00039988. The note with it: add-on therapy to capaxone (glatiramir acetate), RRMS patients; ref Trial NCT00039988; cited from earlier work.
The test system of assay [3] is acutely dissociated and purified rat OPCs. Briefly: Acute OL differentiation assay (MBP expression/cell, immunofluorescent image quantification). Format: cell-based. In outline:
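Oligodendrocyte precursor cells were enriched from P6-P7 Sprague–Dawley rat brains by immunopanning (RAN-2 and GalC depletion, O4 selection), plated at 5000 cells/well in serum-free, mitogen-free differentiation media on PDL/laminin 96-well view plates, centrifuged at 200×g, and pre-incubated 1–2 h before test compounds were added in quadruplicate. On DIV4, cells were fixed, stained for MBP and DAPI, imaged automatically, and MBP expression per cell was quantified.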

In the case of `C[C@]12CC[C@@H]3c4ccc(O)cc4CC[C@H]3[C@@H]1C[C@@H](O)[C@@H]2O` [estriol], the “lesion numbers and volumes” value in assay [1] is “reducing the lesion numbers and volumes”.

For `CC(C)(C)NCC(O)c1ccc(O)c(CO)c1` (centres unmarked) [albuterol, reference compound], the clinical outcomes in assay [2] is recorded as “improved clinical outcomes”. Further, in assay [3] (MBP expression versus 0.1 % DMSO negative control), the “promotion of OL differentiation (in words)” value is given as “not a hit in our screen”. The activation at 2 µM in assay [3] (Rattus norvegicus, 2 uM test compound, relative to quetiapine, sheet "All OLga data", read-out: OL differentiation, 2 uM (% Quet)) was -6%. In assay [3] (Rattus norvegicus, 10 uM test compound, relative to quetiapine, sheet "All OLga data", read-out: OL differentiation, 10 uM (% Quet)), the activation at 10 µM was determined as 18.6%.

Values taken from PMC5011342, “A high throughput drug screening assay to identify compounds that promote oligodendrocyte differentiation using acutely dissociated and purified oligodendrocyte precursor cells” (BMC Research Notes, 2016).
